Measured values as given in patent publication US20260373119A1, “NOVEL COMPOUND, AND COMPOSITION FOR PREVENTING OR TREATING HER2-POSITIVE CANCER, COMPRISING SAME” (EWHA UNIVERSITY - INDUSTRY COLLABORATION FOUNDATION, priority 2022, published 2026).

How the values were obtained:
[1] = system: Ki-67; assay: IHC of NCI-N87 xenograft tumors, Ki-67; assay type: in vivo, mice; conditions: vs control group
Procedure: Xenograft mice were generated to evaluate the anticancer effects of the candidate compound. NCI-N87 and JIMT-1 cells (5×10^6 cells), dissolved in 100 μL of 1× phosphate-buffered saline (PBS), were subcutaneously injected into the right flanks of 5-week-old female athymic nude mice (Envigo, USA) or 4-week-old female NOD-SCID mice (Koatech, South Korea). When the tumors reached a volume of 90-100 mm^3, the mice were randomized into designated groups. For the NCI-N87 xenograft, intravenous administration was performed six times at 3-day intervals. For the JIMT-1 xenograft, intraperitoneal administration was performed eight times at 3-day intervals. […] Tumor size changes were monitored until the mean tumor size in the control group reached 2,000-2,500 mm^3. On day 28 for the NCI-N87 xenograft and day 46 for the JIMT-1 xenograft, the mice were sacrificed, and tumors were excised to determine relative tumor sizes. Tumor length (L) and width (W) were measured with calipers, and tumor volume was calculated using the formula: […]
For immunohistochemistry (IHC) analysis, tumors from the xenograft models were prepared as paraffin-embedded sections. […] The control group was counterstained with hematoxylin, and the IHC staining was evaluated under an optical microscope at 200× magnification.

[2] = biological target: c-RAF (Homo sapiens, UniProt P04049); assay: kinase profiling, c-RAF; assay type: biochemical; conditions: read-out: In vitro kinase inhibitory activity (%)
Chain of c-RAF (P04049 whole entry): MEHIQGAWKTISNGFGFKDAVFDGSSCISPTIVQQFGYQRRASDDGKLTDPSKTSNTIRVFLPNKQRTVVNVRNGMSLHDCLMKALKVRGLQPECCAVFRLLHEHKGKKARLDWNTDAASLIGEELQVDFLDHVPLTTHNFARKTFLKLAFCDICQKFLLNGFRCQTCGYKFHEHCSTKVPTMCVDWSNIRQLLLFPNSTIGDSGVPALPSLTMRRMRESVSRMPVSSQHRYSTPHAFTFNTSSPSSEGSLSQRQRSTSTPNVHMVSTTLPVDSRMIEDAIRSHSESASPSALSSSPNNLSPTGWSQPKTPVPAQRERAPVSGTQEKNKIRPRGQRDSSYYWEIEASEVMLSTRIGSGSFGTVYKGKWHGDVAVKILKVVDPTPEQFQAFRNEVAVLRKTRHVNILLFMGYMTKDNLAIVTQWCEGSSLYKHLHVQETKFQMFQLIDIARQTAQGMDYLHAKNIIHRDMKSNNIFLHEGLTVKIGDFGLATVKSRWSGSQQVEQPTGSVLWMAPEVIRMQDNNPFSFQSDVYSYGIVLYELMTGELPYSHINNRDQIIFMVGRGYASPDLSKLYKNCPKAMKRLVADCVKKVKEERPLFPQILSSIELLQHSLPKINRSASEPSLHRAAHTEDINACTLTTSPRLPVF
Procedure: Kinase inhibitory activity of the candidate compound at 10 μM and 25 μM was assessed using Eurofins Kinase Profiling Services. Inhibitory effects on c-RAF, EGFR, ErbB2, ErbB4, and PI3 kinase were analyzed according to the Kinase Profiler Service Assay protocol.

[3] = system: T47D (HER2-negative breast cancer cell line); assay: antiproliferative effect, T47D; assay type: cell-based; conditions: Homo sapiens, 72 hours
Procedure: The antiproliferative effects were measured after treating Compounds 1 to 22 for 72 hours on HCT15 (HER2-positive colorectal cancer cell line), NCI-N87 (HER2-positive gastric cancer cell line), T47D (HER2-negative breast cancer cell line), and HeLa (HER2-negative cervical cancer cell line). As a result, strong antiproliferative effects were generally observed in the NCI-N87 cell line (Table 2).
The antiproliferative effects of the candidate compound, resulting from HER2 inhibition, were evaluated. Specifically, to confirm the anticancer effects of the candidate compound, cancer cells were seeded at a density of 10^4 cells/well in a 96-well cell culture plate for 20 hours. The cells were starved in serum-free media for 4 hours, followed by replacement with media containing the compound at specified concentrations. The cells were then incubated for 72 hours under conditions of 5% CO2 at 37 °C. Cell viability was determined by adding 5 μL of EZ-CytoX to each well and measuring absorbance at 450 nm. The measurements were performed using an ELISA Microplate Reader (VersaMax, Molecular Devices).

[4] = system: HER2 protein; assay: HER2 protein expression; assay type: cell-based; conditions: dose-dependent
Procedure: For western blot analysis, cells were seeded in a 6-well plate and lysed in 1×RIPA lysis buffer (Cell Signaling, USA) containing 1% 0.1 M [COMPOUND LEFT OUT] and 1% 100× protease inhibitor cocktail solution (Genedepot, USA). Total protein levels were standardized using the Pierce™ BCA Protein Assay Kit (Thermo Fisher Scientific, USA) and a microplate reader (Tecan Group Ltd., Switzerland). A total of 20 μg of protein was loaded onto a 10-15% SDS-PAGE acrylamide gel and transferred to a 0.2 μm PVDF membrane (Pall Life Science, USA). The membrane was blocked with 5% skim milk or 5% BSA, and the membrane was cultured with primary antibodies (purchased from Thermo Fisher, Cell Signaling, Santa Cruz, Novus, or MBL) at room temperature for 3 hours or overnight at 4 °C. The blot was washed three times with Tris-buffered saline containing 0.1% Tween20 (1×TBST) and incubated with an HRP-conjugated secondary antibody (GeneTex, USA). Protein bands were detected using ECL solution reagents (GE Healthcare, USA) and the LAS-3000 imaging system (Fuji Photo Film Co., Ltd., Japan), and captured images were analyzed using Multi-Gauge software (Fuji Photo Film Co. Ltd.). The preparation of cell lysates for subsequent analyses was performed using the same method as described for western blot analysis.

inhibition at 10 µM ([2]; 10 μM): 3% | inhibition at 25 µM ([2]; 25 μM): 10% | IC50 [3]: 9.99 ± 0.2 µM
Structure (SMILES): CC(=O)N1N=C(c2cccc(O)c2)CC1c1ccc(Cl)cc1 (centres unmarked) [Compound 15, 1-[5-(4-Chlorophenyl)-3-(3-hydroxyphenyl)-4,5-dihydropyrazol-1-yl]-ethanone]
proliferation marker Ki-67 [1]: significant decrease | HER2 protein expression level [4]: significantly downregulate HER2 gene and protein expression levels in a dose-dependent manner
